Assay results reported in patent US10975287B2, “Heterocyclic amides useful as protein modulators” (GlaxoSmithKline Intellectual Property Development Limited, priority 2017, dated 2021).
Read-outs that look alike come from different tables or passages of the source.

Key:
Full-length human STING = system: T1, Full-length human STING; format: cell-based
T1 construct: Full-length human STING (Gene ID 340061); expressed in transfected cells; host or cells: HEK293T
Method: Functional Assay III (HEX WT agonist assay): Activation of STING in cells may be determined using a luciferase reporter assay in human embryonic kidney cells (HEK293T) co-transfected with plasmids expressing STING and the enzyme firefly luciferase driven by the interferon stimulated response element promoter (pISRE-Luc) (Agilent Technologies). […] Transfections were prepared using a cell suspension with Fugene® 6 following the manufacturer's instructions (3:1 Fugene®:DNA). […] of the transfection suspension was dispensed into wells of a 384-well plate containing 250 nL of a compound of Formula (I). […] Control wells expected to generate maximal activation of STING were cotransfected with a cGAS expression plasmid. Plates were sealed and incubated for 24 hours at 37° C. The expression of firefly luciferase was processed using Steady-Glo® luciferase assay system (Promega) and was analyzed using a standard laboratory luminescence plate reader. Data was normalized to luminescence response in the presence of cGAS, was plotted as a function of compound concentration, and fit using a standard model of receptor activation to derive the pEC50.

[1] = system: C-terminal Domain (CTD) of human STING; conditions: 500 pM STING, 100 nM Alexa488 probe, 15 min at room temperature
[2] = HEK293T co-transfected with STING and pISRE-Luc, 24 hours at 37° C., normalized to cGAS response

SMILES	HEK assay (pEC50) (Full-length human STING; [2])	FRET assay (pIC50) [1]	HEK assay (pEC50) (Full-length human STING)
CCCCn1c(NC(=O)c2cc(C)nn2CC)nc2cc(C(N)=O)cc(OC)c21 [Example 24, 1-butyl-2-(1-ethyl-3-methyl-1H-pyrazole-5-carboxamido)-7-methoxy-1H-benzo[d]imidazole-5-carboxamide]	6.0		
C=CCn1c(NC(=O)c2cc(C)nn2CC)nc2cc(C(N)=O)cc(OC)c21 [Example 14, 1-allyl-2-(1-ethyl-3-methyl-1H-pyrazole-5-carboxamido)-7-methoxy-1H-benzo[d]imidazole-5-carboxamide]	5.6	<3.9	
CCCn1c(NC(=O)c2cc(C)nn2CC)nc2cc(C(N)=O)cc(CN3CCOCC3)c21 [Example 41, 2-(1-ethyl-3-methyl-1H-pyrazole-5-carboxamido)-7-(morpholinomethyl)-1-propyl-1H-benzoylimidazole-5-carboxamide]		5.4	
CCn1nc(C)cc1C(=O)Nc1nc2cc(C(N)=O)cc(OC(C)C)c2n1CCCN1CCOCC1 [Example 37, 2-(1-ethyl-3-methyl-1H-pyrazole-5-carboxamido)-7-isopropoxy-1-(3-morpholinopropyl)-1H-benzo[d]imidazole-5-carboxamide]		5.5	
CCn1nc(C)cc1C(=O)Nc1nc2cc(C(N)=O)ccc2n1C [Example 1, 2-(1-ethyl-3-methyl-1H-pyrazole-5-carboxamido)-1-methyl-1H-benzo[d]imidazole-5-carboxamide]	4.4	4.4	
CCCn1c(NC(=O)c2cc(C)nn2CC)nc2cc(C(N)=O)cc(OCCCO)c21 [Example 13, 2-(1-ethyl-3-methyl-1H-pyrazole-5-carboxamido)-7-(3-hydroxypropoxy)-1-propyl-1H-benzo-[d]imidazole-5-carboxamide]	5.4		
C=CCn1c(NC(=O)c2cc(C)nn2CC)nc2cc(C(N)=O)ccc21 [Example 2, 1-allyl-2-(1-ethyl-3-methyl-1H-pyrazole-5-carboxamido)-1H-benzo[d]imidazole-5-carboxamide]	4.5	4.6	
CCn1nc(C)cc1C(=O)Nc1nc2cc(C(N)=O)cc(OC)c2n1CCCc1cccnc1 [Example 50, 2-(1-ethyl-3-methyl-1H-pyrazole-5-carboxamido)-7-methoxy-1-(3-(pyridin-3-yl)propyl)-1H-benzoylimidazole-5-carboxamide]		5.3	
C=CCn1c(NC(=O)c2cc(C)nn2CC)nc2cc(C(N)=O)cc(OCCCO)c21 [Example 4, 1-Allyl-2-(1-ethyl-3-methyl-1H-pyrazole-5-carboxamido)-7-(3-hydroxypropoxy)-1H-benzoylimidazole-5-carboxamide]	4.5	4.9	
CCCn1c(NC(=O)c2cc(C)nn2CC)nc2c(OC)c(C(N)=O)ccc21 [Example 30, 2-(1-ethyl-3-methyl-1H-pyrazole-5-carboxamido)-4-methoxy-1-propyl-1H-benzo[d]imidazole-5-carboxamide]		5.0	
CCn1nc(C)cc1C(=O)Nc1nc2cc(C(N)=O)cc(OC)c2n1CCCNC(=O)OCc1ccccc1 [Example 53, benzyl (3-(5-carbamoyl-2-(1-ethyl-3-methyl-1H-pyrazole-5-carboxamido)-7-methoxy-1H-benzo[d]imidazol-1-yl)propyl)carbamate]			6.2
CCn1nc(C)cc1C(=O)Nc1nc2cc(C(N)=O)cc(OC)c2n1CCC(C)C [Example 27, (1-ethyl-3-methyl-1H-pyrazole-5-carboxamido)-1-isopentyl-7-methoxy-1H-benzo[d]imidazole-5-carboxamide]	5.5		
CCCn1c(NC(=O)c2cc(CC)nn2CC)nc2cc(C(N)=O)cc(OC)c21 [Example 57, 2-(1,3-diethyl-1H-pyrazole-5-carboxamido)-7-methoxy-1-propyl-1H-benzo[d]imidazole-5-carboxamide]	5.5		
CCn1nc(C)cc1C(=O)Nc1nc2cc(C(N)=O)cc(OC)c2n1CCCCNC(=O)OC(C)(C)C [Example 17, tert-butyl (4-(5-carbamoyl-2-(1-ethyl-3-methyl-1H-pyrazole-5-carboxamido)-7-methoxy-1H-benzo[d]imidazol-1-yl)butyl)carbamate]	6.1		
CCCn1c(NC(=O)c2cc(C)nn2CC)nc2cc(C(N)=O)cc(OC)c21 [Example 3, 2-(1-ethyl-3-methyl-1H-pyrazole-5-carboxamido)-7-methoxy-1-propyl-1H-benzo[d]imidazole-5-carboxamide]	6	5.5	
CCn1nc(C)cc1C(=O)Nc1nc2cc(C(N)=O)cc(OC)c2n1CCCN1CCOCC1 [Example 9, 2-(1-ethyl-3-methyl-1H-pyrazole-5-carboxamido)-7-methoxy-1-(3-morpholinopropyl)-1H-benzo[d]imidazole-5-carboxamide]	5.1	5.1	
